Experimental data from patent US20260159525A1, “TRICYCLIC HETEROCYCLES” (Merck Patent GmbH, priority 2021, published 2026).

Key:
Assay type in all cases: cell-based
YAP-TEAD interaction = assay: SK-HEP-1 reporter assay (8x TEAD responsive elements driving NanoLuc luciferase); conditions: Homo sapiens, SK-HEP1, SK-HEP-1 cells, 24 hour incubation
Procedure: To identify inhibitors of YAP-TEAD interaction, 8× TEAD responsive elements driving the NanoLuc® luciferase gene were stably integrated into SK-HEP-1 cells (ECACC #: 91091816).
For the assay, cells were treated in duplicates with the test compounds in a 10-point dose, with the top concentration starting at 30 μM (final concentration in assay). After a 24 hour incubation at 37° C., 95% rH, and 5% CO2, a luciferase substrate/lysis reagent mix (NanoGlo™, Promega) was added to the cells, allowing the quantification of cellular luciferase activity.
Cell Media: The cells were cultured in the following media: MEM, +10% FBS, +1× GlutaMAX, +1 mM Sodium-Pyruvate, +100 μM Non-essential amino acids, +0.1 mg/ml Hygromycin. The media used for the assay was: MEM (w/o Phenol Red), +10% FBS, +1× GlutaMAX, +1 mM Sodium-Pyruvate, +100 μM Non-essential amino acids, +0.5% Pen/Strep
(§1) Reagents: The reagents used are listed below:
(§2) Cell culture: The cells were examined using an inverted microscope to check for health and cell density. To dissociate adherent cells, the monolayer of cells was washed once with pre-warmed PBS. After removing the PBS, 3 ml pre-warmed Accutase® was added to a F75 flask, dispersed evenly and the flask was allowed to sit in incubator for ˜4-5 minutes.
(§3) When a single cell suspension was obtained, 7 ml of prewarmed growth media was added and resuspended with the cells. The cell suspension was transferred to a sterile 15 ml conical centrifuge tube, and spun for 5 min at 300×g, RT. The supernatant was discarded and the pellet was resuspended in 10 ml of pre-warmed growth media.
(§4) The total cell count was determined, and 20 μl of the desired cell number was added to each well of a 384 well plate using a Multidrop Combi. The plates were then incubated for 24 hours at 37° C., 95% rH, and 5% CO2.
(§5) Compound treatment: 24 hours after seeding, the cells were treated with compounds.
(§6) A 1:333 dilution of compounds, diluted in DMSO, was made to get a final concentration of 0.3% DMSO per well. To transfer the compounds to the assay plate, 120 nl was shot from Labcyte low dead volume plates to the cell plates containing 20 μl media/well with the ECHO 555 liquid handling system. After treatment, the cells were fed with 20 μl fresh pre-warmed assay media using a Multidrop combi.
The assay plates were then incubated for another 24 h at 37° C., 95% rH, and 5% CO2.
Luciferase readout: 24 h after treatment, the plates were taken out of the incubator and were allowed to equilibrate to RT. 30 μl of NanoGlo® reagent was added to the plates in the dark. Plates were shaken for 20 min on a Teleshake (˜1500 rpm) in the dark. The luminescence was then measured using an EnVision microplate reader. The IC50 values were generated using Genedata Screener®.

NCI-H226 cells = assay: Viability assay in NCI-H226 (Yap-dependent) cells, CyQUANT; conditions: Homo sapiens, NCI-H226 YAP dependent cell line, 96 hour incubation
Procedure: (§7) Viability Assay in NCI-H226 (Yap-Dependent) and SW620 Yap KO (Yap Independent) Cells
(§8) The ability of YAP-TEAD inhibitors to inhibit tumor cell growth was evaluated using two different cell lines: NCI-H226, which is a YAP dependent cell line, and SW620 cells, where YAP and TAZ were knocked out using CRISPR to generate a YAP independent cell line.
(§9) For the assay, cells were treated in duplicates with the test compounds in a 10-point dose, 1:3 dilution steps, with the top concentration starting at 30 μM (final concentration in assay). After a 96 hour incubation at 37° C., 95% rH, and 5% CO2, a cell-permeant DNA-binding dye that stains only healthy cells (CyQUANT®, Promega) was added to the cells, allowing the quantification of cell viability.
(§10) Cell Media: The NCI-H226 cells were cultured in the following media: RPMI 1640, +10% FBS, +1× GlutaMAX, +10 mM HEPES, +0.5% Pen/Strep. The SW620-KO cells were cultured in the following media: DMEM/F-12, +10% FBS, +1× GlutaMAX, +10 mM HEPES, +0.5% Pen/Strep.
as §1
as §2, with “health,” for “health and”, “density, etc.” for “density.”, “Accutase” for “Accutase®”
as §3, §4, §5, §6
(§11) The assay plates were then incubated for 96 h at 37° C., 95% rH, and 5% CO2.
(§12) 96 h after treatment 30 μl of CyQuant® reagent was added to the assay plates using a Multidrop combi in the dark. The plates were then incubated for 1 hour at 37° C., 95% rH and 5% CO2. Thereafter, the assay plates were removed from the incubator and allowed to equilibrate to RT for 30 min in the dark without lid. Finally, they were measured using an EnVision microplate reader with a FITC bottom read program.

SW620 Yap KO cells = assay: Viability assay in SW620 Yap KO (Yap independent) cells, CyQUANT; conditions: Homo sapiens, SW-620, SW620 YAP and TAZ knocked out (YAP independent), 96 hour incubation
Procedure: as §7, §8, §9, §10, §1
as §2, with “health,” for “health and”, “density, etc.” for “density.”, “Accutase” for “Accutase®”
as §3, §4, §5, §6, §11, §12

[1] = number, or n.d. (x) = not detectable below threshold x
[2] = n.d. (x) = not detectable below threshold x

| SMILES | IC50 (YAP-TEAD interaction; [1]) [nM] | IC50 (NCI-H226 cells; group symbols) [nM] | IC50 (SW620 Yap KO cells; [2]) [nM] | IC50 (YAP-TEAD interaction; group symbols) [nM] | IC50 (SW620 Yap KO cells; group symbols) [nM] | IC50 (NCI-H226 cells; printed number) [nM] |
| --- | --- | --- | --- | --- | --- | --- |
| COCCC(CO)NC(=O)c1cc2c3cn(C)nc3n(-c3ccc(C(F)(F)F)cc3)c2s1 (racemic) [Compound 63, N-(1-hydroxy-4-methoxybutan-2-yl)-4-methyl-7-[4-(trifluoromethyl)phenyl]-9-thia-4,5,7-triazatricyclo[6.3.0.0^2,6]undeca-1(8),2,5,10-tetraene-10-carboxamide] | > 9500 | 1 to 100 | > 3000 | – | – | – |
| Cn1cc2c3cc(C(=O)N[C@H](CCO)c4cncs4)sc3n(-c3ccc(C(F)(F)F)cc3)c2n1 (single isomer, unassigned) [Compound 42] | > 9500 | 1000 to 10000 | – | – | 1000 to 10000 | – |
| Cn1cc2c3sc(C(=O)O)cc3n(-c3ccc(C(F)(F)F)cc3)c2n1 [Compound 2, 10-methyl-7-[4-(trifluoromethyl)phenyl]-3-thia-7,9,10-triazatricyclo[6.3.0.0^2,6]undeca-1(11),2(6),4,8-tetraene-4-carboxylic acid] | – | 100 to 1000 | – | 10 to 100 | – | – |
| Cn1nc2c3sc(C(=O)O)cc3n(-c3ccc(C(F)(F)F)cc3)c2n1 [Compound 3, 4-methyl-7-[4-(trifluoromethyl)phenyl]-11-thia-3,4,5,7-tetraazatricyclo[6.3.0.0^2,6]undeca-1(8),2,5,9-tetraene-10-carboxylic acid] | – | 100 to 1000 | – | 10 to 100 | – | – |
| Cn1cc2c3cc(C(=O)O)sc3n(-c3ccc(C(F)(F)F)cc3)c2n1 [Compound 19, 4-methyl-7-[4-(trifluoromethyl)phenyl]-9-thia-4,5,7-triazatricyclo[6.3.0.0^2,6]undeca-1(8),2,5,10-tetraene-10-carboxylic acid] | – | 1 to 100 | > 30000 | 1 to 10 | – | – |
| CNC(=O)c1cc2c3cn(C)nc3n(-c3ccc(C(F)(F)F)cc3)c2s1 [Compound 32, N,4-dimethyl-7-[4-(trifluoromethyl)phenyl]-9-thia-4,5,7-triazatricyclo[6.3.0.0^2,6]undeca-1(8),2,5,10-tetraene-10-carboxamide] | – | 1 to 100 | – | 10 to 100 | – | – |
| Cn1cc2c3cc(C(=O)NCCOCCOCCNC(=O)OC(C)(C)C)sc3n(-c3ccc(C(F)(F)F)cc3)c2n1 [Compound 88, tert-butyl N-(2-{2-[2-({4-methyl-7-[4-(trifluoromethyl)phenyl]-9-thia-4,5,7-triazatricyclo[6.3.0.0^2,6]undeca-1(8),2,5,10-tetraen-10-yl}formamido)ethoxy]ethoxy}ethyl)carbamate] | > 30000 | – | – | – | – | 88 |
| C[C@H](CO)NC(=O)c1cc2c3cn(C)nc3n(-c3ccc(C(F)F)cn3)c2s1 [Compound 132, 7-[5-(difluoromethyl)pyridin-2-yl]-N-[(2R)-1-hydroxypropan-2-yl]-4-methyl-9-thia-4,5,7-triazatricyclo[6.3.0.0^2,6]undeca-1(8),2,5,10-tetraene-10-carboxamide] | > 300 | – | – | – | – | – |
| Cn1cc2c3sc(C(=O)NC4CC4)cc3n(-c3ccc(C(F)(F)F)cc3)c2n1 [compound 12] | – | – | – | > 10000 | – | – |

Second part, the compound after the results:

| IC50 (YAP-TEAD interaction; [1]) [nM] | IC50 (NCI-H226 cells; group symbols) [nM] | IC50 (SW620 Yap KO cells; [2]) [nM] | IC50 (YAP-TEAD interaction; group symbols) [nM] | IC50 (SW620 Yap KO cells; group symbols) [nM] | IC50 (NCI-H226 cells; printed number) [nM] | SMILES |
| --- | --- | --- | --- | --- | --- | --- |
| – | 100 to 1000 | > 3000 | 100 to 10000 | – | – | Cn1cc2c3cc(C(=O)N[C@@H](CCO)c4cncs4)sc3n(-c3ccc(C(F)(F)F)cc3)c2n1 (single isomer, unassigned) [Compound 41] |
| > 300 | 100 to 1000 | – | – | – | – | COCC[C@@H](CO)NC(=O)c1cc2c3cn(C)nc3n(-c3ccc(C(F)(F)F)cc3)c2s1 (single isomer, unassigned) [Compound 59] |
| > 9500 | 100 to 1000 | – | – | – | – | Cn1cc2c3cc(C(=O)N=[S@@](C)(=O)CCCO)sc3n(-c3ccc(C(F)(F)F)cc3)c2n1 (single isomer, unassigned) [Compound 61] |
| > 300 | 100 to 1000 | > 3000 | – | – | – | Cn1cc2c3cc(C(=O)N=[S@](C)(=O)CCCO)sc3n(-c3ccc(C(F)(F)F)cc3)c2n1 (single isomer, unassigned) [Compound 62] |
| – | – | – | – | – | 1500 | Cn1cc2c3cc(C(=O)N[C@H](CCO)c4ccccn4)sc3n(-c3ccc(C(F)(F)F)cc3)c2n1 (single isomer, unassigned) [Compound 90] |
| – | 1 to 100 | > 30000 | 10 to 100 | – | – | Cn1ccc([C@@H](CO)NC(=O)c2cc3c4cn(C)nc4n(-c4ccc(C(F)(F)F)cc4)c3s2)n1 (single isomer, unassigned) [Compound 130] |
| – | > 10000 | – | 100 to 10000 | – | – | CNC(=O)c1cc2c(s1)c1cn(C)nc1n2-c1ccc(C(F)(F)F)cc1 [Compound 1, N,10-dimethyl-7-[4-(trifluoromethyl)phenyl]-3-thia-7,9,10-triazatricyclo[6.3.0.0^2,6]undeca-1(11),2(6),4,8-tetraene-4-carboxamide] |
| – | 1000 to 10000 | – | > 10000 | – | – | Cn1nc2c3sc(C(=O)NC(CO)c4ccccn4)cc3n(-c3ccc(C(F)(F)F)cc3)c2n1 (stereo not shown) [Compound 4, N-[2-hydroxy-1-(pyridin-2-yl)ethyl]-4-methyl-7-[4-(trifluoromethyl)phenyl]-11-thia-3,4,5,7-tetraazatricyclo[6.3.0.0^2,6]undeca-1(8),2,5,9-tetraene-10-carboxamide] |
| – | 1000 to 10000 | – | > 10000 | – | – | CNC(=O)c1cc2c(s1)c1nn(C)nc1n2-c1ccc(C(F)(F)F)cc1 [Compound 5, N,4-dimethyl-7-[4-(trifluoromethyl)phenyl]-11-thia-3,4,5,7-tetraazatricyclo[6.3.0.0^2,6]undeca-1(8),2,5,9-tetraene-10-carboxamide] |
| – | 100 to 1000 | > 30000 | 10 to 100 | – | – | Cn1cc2c3sc(C(=O)O)cc3n(-c3ccc(OC(F)F)cc3)c2n1 [Compound 10, 7-[4-(difluoromethoxy)phenyl]-10-methyl-3-thia-7,9,10-triazatricyclo[6.3.0.0^2,6]undeca-1(11),2(6),4,8-tetraene-4-carboxylic acid] |
| – | 100 to 1000 | – | 100 to 10000 | – | – | Cn1cc2c3cc(C(=O)N=S(C)(C)=O)sc3n(-c3ccc(C(F)(F)F)cc3)c2n1 [Compound 34, N-[dimethyl(oxo)-λ^6-sulfanylidene]-4-methyl-7-[4-(trifluoromethyl)phenyl]-9-thia-4,5,7-triazatricyclo[6.3.0.0^2,6]undeca-1(8),2,5,10-tetraene-10-carboxamide] |
| – | – | > 30000 | 100 to 10000 | – | – | Cn1cc2c3cc(C(=O)O)sc3n([C@H]3CC[C@@H](C(F)(F)F)CC3)c2n1 [Compound 51, 4-methyl-7-[(1s,4s)-4-(trifluoromethyl)cyclohexyl]-9-thia-4,5,7-triazatricyclo[6.3.0.0^2,6]undeca-1(8),2,5,10-tetraene-10-carboxylic acid] |
